The source of these data is patent US8415376B2, “Inhibitors of PI3 kinase” (Amgen Inc., priority 2008, dated 2013).

For one assay, the target named is T1, PI3Kα (Homo sapiens, UniProt P42336).
T1 construct: Full length p110 subunits of PI3K α, β and δ, N-terminally labeled with polyHis tag; polyHis (N); made in house; host or cells: Sf9 insect cells (baculovirus)
The experiment in a line: In vitro PI3K AlphaScreen assay. Format: biochemical. Particulars: average if run more than once.

A further assay addresses T2, mTOR (Homo sapiens, UniProt P42345).
T2 construct: purchased Invitrogen (Carlsbad, Calif.)
The experiment in a line: In vitro mTOR assay (Lanthascreen). Format: biochemical. Particulars: average if run more than once. An excerpt: The Invitrogen (Carlsbad, Calif.) mammalian target of rapamycin (mTOR) Lanthascreen assay can be used to quantitate mTOR kinase activity in an in vitro setting. Active mTOR phosphorylates eukaryotic translation initiation factor 4E binding protein 1 (4E-BP1) on residue threonine 46. This phosphorylation event can be detected with a phospho-specific terbium (Tb) labeled Ab, in turn bringing the Tb label in close proximity to the GFP tagged 4E-BP1 and allowing for time-resolved fluorescence resonance energy transfer (TR-FRET), which correlates 4E-BP1 phosphorylation levels with mTOR kinase activity.
Enzyme reaction buffer can be prepared in deionized water containing 50 mM HEPES (pH 7.5), 0.01% Polysorbate 20, 1 mM EGTA, and 10 mM MnCl2.
Dilutions of the compound to be tested can be prepared in 96-well polypropylene plates (Fisher Scientific, Waltham, Mass.). One row represents a 10-point dose of compound diluted 1:3 in enzyme reaction buffer and 20% dimethyl sulfoxide (DMSO). The top concentration for all compounds is 36 μM. Wells 6 and 12 can serve as the no compound (DMSO only) and high compound controls.
An mTOR substrate solution can prepared in enzyme reaction buffer containing 1600 nM green fluorescent protein tagged eukaryotic translation initiation factor 4E binding protein 1 (GFP-4E-BP1) (Invitrogen, Carlsbad, Calif.) and 28 uM adenosine triphosphate (ATP) (Calbiochem, Gibbstown, N.J.).
mTOR enzyme (Invitrogen, Carlsbad, Calif.) can be diluted in enzyme reaction buffer to a working concentration of 100 ng/mL.
The enzyme assay can be run in 384 well low volume assay plates (Corning, Corning, N.Y.). 2.5 uL of substrate solution containing GFP-4E-BP1 and ATP can be added to appropriate wells in the assay plate followed by 2.5 μL of compound dilutions. 5 μL of appropriately diluted mTOR enzyme can be added and the reaction allowed to proceed for 1 hour at room temperature. Final reagent concentrations in the enzyme assay are 50 ng/mL mTOR, 400 nM GFP-4E-BP1, and 7 μM ATP.
The enzyme assay can be terminated upon the addition of 10 μL of 20 mM EDTA and 4 nM Tb-labeled anti-phospho-4E-BP1 [T46] antibody (Invitrogen, Carlsbad, Calif.). The assay plate can then be incubated at room temperature for 1 hour and results read on a Tecan Safire II plate reader (Tecan, Männedorf, Switzerland).

Assay [1] concerns phosphorylation of Akt at Serine 473. The assay is described as follows: pAkt AlphaScreen (U87 cell). It counts as cell-based. To be noted: Homo sapiens, U-87 MG; U87 MG cells, pAkt Ser473; average. The protocol: pAkt Alphascreen (U87 Cell)
The pAkt AlphaScreen® assay (PerkinElmer, Waltham, Mass.) determines whether there is phosphorylation of Akt at Serine 473 by recruitment of a phosphospecific antibody. This assay was performed using U87 MG cells. The U87 growth media consists of MEM (Gibco, Carlsbad, Calif.) supplemented with 10% FBS (Gibco,), 1× Non-Essential Amino Acids (Gibco,) and 1× Penicillin/Streptomycin/Glutamine (Gibco). The cells were maintained weekly using 0.05% Trypsin (Gibco) and replated in 150 mm TC-Treated Culture Dishes (Corning, Corning, N.Y.).
The first day of the assay, the adherent cells were trypsinized, media was added to the loose cells and cells were mixed to a homogenous mixture. 0.5 ml of the homogenous mixture was counted on the Beckman Coulter® Vi-CELL™ XR (Fullerton, Calif.). 50 frames of cells were counted and the number of viable cells was determined. The cells were then diluted to 0.25 million cells per ml, and centrifuged at 200 rcf for 5 minutes. The media was removed and the cells were reconstituted in fresh media for plating. The cells were plated at 20 μl per well on the PerkinElmer® FlexDrop PLUS in Low Volume 384 Well White Tissue Culture Plates (Corning) with a final cell density of 5K cells per well. The plates were incubated overnight at 37° Celsius, 5% CO2.
On the second day, the compound plates were prepared, the cells were treated with compound and the pAkt reaction mix was added to the cell lysate. 384 well compound plates were prepared containing 1 μl of compound per well starting at 5 mM and diluted 1:2 across the row, resulting in a 22 well serial dilution. 39 μl of growth media was added to the compound plate in rows 1-22 using the PerkinElmer® FlexDrop PLUS resulting in a DMSO concentration of 2.5%. The cell plates and diluted compound plates were put onto the VELOCITY11™ VPREP™ 384 ST where the compound plate was mixed and 5 μl of serially diluted compound or controls was added to the cell plate. The final concentration of the compounds was 25 μM serially diluted to 11.9 pM in 0.5% DMSO. The cell plates were then incubated with compound for two hours at 37° Celsius, 5% CO2. After two hours, the media in the cell plates was aspirated using the BioTek® ELx405HT plate washer (Winooski, Vt.) removing the majority of media and compound without disturbing the adherent U87 cells. The following assay reagents are components of the SureFire® Akt (Ser 473) Phosphorylation 50K Point Kit (TGR BioSciences, Adelaide, Austalia) and an IgG Detection Kit (PerkinElmer, Waltham, Mass.). 5 μl of 1× Lysis Buffer was added to each well using the PerkinElmer® FlexDrop PLUS. The plates were then incubated at room temperature on a shaker for ten minutes. The AlphaScreen® reaction was prepared under low light conditions (subdued or green light) including p-Akt (Ser 473) Reaction Buffer, Dilution Buffer, Activation Buffer, Acceptor Beads and Donor Beads at a ratio of 40:20:10:1:1 respectively. The AlphaScreen® reaction was added to the cell lysate at 6 μl per well using the PerkinElmer® FlexDrop PLUS. The plates were placed in a humid environment to reduce edge effects and incubated overnight at room temperature with restricted air flow in the dark.
On the final day of the experiment, the plates were read on the PerkinElmer® EnVision™ 2103 Multilable Reader using the standard AlphaScreen® readout. The POC is calculated and the data is analyzed to report the IC50 IP for pAkt at Serine 473.
Activity data for the compounds tested in the PI3K cell based Akt assay is provided in Table 2 under the column heading U87

T2 sequence (P42345 1360-2549 limits assumed): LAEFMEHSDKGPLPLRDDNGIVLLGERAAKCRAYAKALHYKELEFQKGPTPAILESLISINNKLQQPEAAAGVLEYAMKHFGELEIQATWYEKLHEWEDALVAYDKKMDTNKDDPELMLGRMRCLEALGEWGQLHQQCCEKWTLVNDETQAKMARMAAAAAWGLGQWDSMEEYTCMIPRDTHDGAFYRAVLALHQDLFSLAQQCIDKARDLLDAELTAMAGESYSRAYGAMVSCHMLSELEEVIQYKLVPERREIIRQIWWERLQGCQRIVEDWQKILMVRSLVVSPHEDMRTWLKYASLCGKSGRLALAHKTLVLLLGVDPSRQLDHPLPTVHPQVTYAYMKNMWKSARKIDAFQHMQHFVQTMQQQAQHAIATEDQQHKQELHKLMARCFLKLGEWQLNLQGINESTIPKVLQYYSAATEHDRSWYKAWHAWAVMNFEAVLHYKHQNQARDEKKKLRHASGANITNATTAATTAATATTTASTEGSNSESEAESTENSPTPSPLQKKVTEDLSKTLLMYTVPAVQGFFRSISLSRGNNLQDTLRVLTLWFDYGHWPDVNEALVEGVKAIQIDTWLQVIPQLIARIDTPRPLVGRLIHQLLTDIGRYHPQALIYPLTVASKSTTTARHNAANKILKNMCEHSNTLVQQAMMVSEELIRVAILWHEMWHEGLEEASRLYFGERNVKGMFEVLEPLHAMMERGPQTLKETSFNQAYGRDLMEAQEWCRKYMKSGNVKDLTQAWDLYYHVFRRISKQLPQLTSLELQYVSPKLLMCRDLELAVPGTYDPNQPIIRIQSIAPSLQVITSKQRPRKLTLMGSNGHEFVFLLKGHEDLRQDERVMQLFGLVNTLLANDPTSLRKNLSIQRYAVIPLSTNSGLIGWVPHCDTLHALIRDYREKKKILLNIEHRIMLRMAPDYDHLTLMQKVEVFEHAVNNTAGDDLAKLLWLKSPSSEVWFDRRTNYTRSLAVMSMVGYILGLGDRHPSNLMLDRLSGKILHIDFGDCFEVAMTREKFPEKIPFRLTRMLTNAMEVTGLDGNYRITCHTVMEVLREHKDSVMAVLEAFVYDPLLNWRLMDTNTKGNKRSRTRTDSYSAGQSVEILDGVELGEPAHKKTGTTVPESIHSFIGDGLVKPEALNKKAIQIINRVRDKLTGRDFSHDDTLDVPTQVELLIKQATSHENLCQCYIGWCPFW
T1 sequence (P42336 whole entry): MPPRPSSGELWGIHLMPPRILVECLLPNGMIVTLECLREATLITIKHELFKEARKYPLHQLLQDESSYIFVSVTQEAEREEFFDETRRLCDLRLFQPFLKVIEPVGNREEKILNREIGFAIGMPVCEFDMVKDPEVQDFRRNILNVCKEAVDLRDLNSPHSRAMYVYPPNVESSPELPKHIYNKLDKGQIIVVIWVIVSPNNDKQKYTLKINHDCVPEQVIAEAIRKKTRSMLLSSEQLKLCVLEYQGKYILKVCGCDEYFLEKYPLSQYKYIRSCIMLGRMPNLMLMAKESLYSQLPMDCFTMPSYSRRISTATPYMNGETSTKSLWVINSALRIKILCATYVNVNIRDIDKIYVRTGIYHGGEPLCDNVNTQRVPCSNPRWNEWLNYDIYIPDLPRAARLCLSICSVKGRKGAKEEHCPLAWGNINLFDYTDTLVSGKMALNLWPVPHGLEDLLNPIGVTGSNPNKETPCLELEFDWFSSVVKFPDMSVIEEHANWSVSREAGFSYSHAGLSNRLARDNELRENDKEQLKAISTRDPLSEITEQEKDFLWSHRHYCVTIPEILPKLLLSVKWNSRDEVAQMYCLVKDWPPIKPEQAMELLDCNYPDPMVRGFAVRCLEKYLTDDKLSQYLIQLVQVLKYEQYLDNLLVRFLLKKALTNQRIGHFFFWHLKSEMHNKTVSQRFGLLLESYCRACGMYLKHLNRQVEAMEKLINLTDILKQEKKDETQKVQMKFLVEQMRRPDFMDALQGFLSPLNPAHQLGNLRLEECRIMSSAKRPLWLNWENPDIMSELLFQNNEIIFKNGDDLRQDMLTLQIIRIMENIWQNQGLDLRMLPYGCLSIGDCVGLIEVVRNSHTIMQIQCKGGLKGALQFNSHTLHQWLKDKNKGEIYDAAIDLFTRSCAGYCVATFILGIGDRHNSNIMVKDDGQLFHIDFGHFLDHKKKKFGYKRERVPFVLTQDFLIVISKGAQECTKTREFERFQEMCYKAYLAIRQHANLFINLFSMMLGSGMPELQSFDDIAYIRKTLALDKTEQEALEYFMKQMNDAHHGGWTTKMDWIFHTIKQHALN
T1 sequence (P27986 whole entry partner): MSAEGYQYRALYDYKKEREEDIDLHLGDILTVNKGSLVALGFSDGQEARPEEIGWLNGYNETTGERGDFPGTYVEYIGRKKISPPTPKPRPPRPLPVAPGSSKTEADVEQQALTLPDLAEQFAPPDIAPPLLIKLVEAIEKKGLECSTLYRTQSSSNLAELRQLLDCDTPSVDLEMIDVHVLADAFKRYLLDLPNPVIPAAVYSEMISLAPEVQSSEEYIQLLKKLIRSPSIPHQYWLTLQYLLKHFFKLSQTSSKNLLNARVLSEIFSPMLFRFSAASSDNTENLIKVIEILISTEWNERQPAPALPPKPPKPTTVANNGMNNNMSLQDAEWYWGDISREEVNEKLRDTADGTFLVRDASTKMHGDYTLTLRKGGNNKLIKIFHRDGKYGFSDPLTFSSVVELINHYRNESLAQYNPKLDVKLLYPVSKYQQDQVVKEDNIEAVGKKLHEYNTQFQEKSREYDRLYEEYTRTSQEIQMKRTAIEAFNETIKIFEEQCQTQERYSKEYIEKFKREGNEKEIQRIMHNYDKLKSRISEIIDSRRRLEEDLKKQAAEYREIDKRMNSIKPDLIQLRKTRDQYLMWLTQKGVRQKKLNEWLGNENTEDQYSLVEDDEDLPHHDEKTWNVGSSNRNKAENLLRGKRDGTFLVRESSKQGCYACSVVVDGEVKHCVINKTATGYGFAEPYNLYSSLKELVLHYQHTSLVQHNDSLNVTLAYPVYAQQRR

In the case of `Cc1cc(-c2ccnc3ccc(-c4cnc(Cl)c(NS(C)(=O)=O)c4)cc23)ccn1` [Example 105, N-(2-chloro-5-(4-(2-methyl-4-pyridinyl)-6-quinolinyl)-3-pyridinyl)methanesulfonamide], the affinity on PI3Kα corresponds to a Ki of 0.0015 µM. Further, the IC50 stood at 0.0015 µM at mTOR and 0.0085 µM in assay [1].
`COc1ccc(-n2c(=O)cnc3ccc(-c4cnc(Cl)c(NS(=O)(=O)N(C)C)c4)cc32)cn1` [Example 132, N-(2-chloro-5-(4-(6-methoxypyridin-3-yl)-3-oxo-3,4-dihydroquinoxalin-6-yl)pyridin-3-yl)dimethylaminosulfonamide] showed a Ki on PI3Kα of 0.0022 µM. Moreover, the IC50 was found to be 0.0023 µM against mTOR and 0.0408 µM in assay [1].
The corresponding values for `CC1(C)CN(c2ccnc3ccc(-c4cnc(Cl)c(NS(C)(=O)=O)c4)cc23)CCO1` [Example 90, N-(2-chloro-5-(4-(2,2-dimethyl-4-morpholinyl)-6-quinolinyl)-3-pyridinyl)methanesulfonamide] are 0.0107 µM, 0.0044 µM and 0.0484 µM.
As to `CN(C)S(=O)(=O)Nc1cc(-c2ccc3ncc(=O)n(-c4ccccc4)c3c2)cnc1Cl` [Example 130, N-(2-chloro-5-(3-oxo-4-phenyl-3,4-dihydroquinoxalin-6-yl)pyridin-3-yl)dimethylaminosulfonamide], affinity at PI3Kα was put at a Ki of 0.0025 µM. Besides, the IC50 at mTOR came out at 0.0012 µM; in assay [1], 0.0087 µM.
In the same order, the values of `O=S1(=O)CCC(COc2ccnc3ccc(-c4cnc(Cl)c(NS(=O)(=O)c5ccc(F)cc5)c4)cc23)CC1` [Example 113, N-(2-Chloro-5-(4-((tetrahydro-2H-thiopyran-1,1-dioxide-4-yl)methoxy)quinolin-6-yl)pyridin-3-3-yl)-4-fluorobenzenesulfonamide] are 0.0016 µM, 0.0146 µM and 0.0444 µM.
With `CS(=O)(=O)Nc1cc(-c2ccc3nccc(N4CCN(Cc5ccc6c(c5)OCO6)CC4)c3c2)cnc1Cl` [Example 84, N-(5-(4-(4-(1,3-benzodioxol-5-ylmethyl)-1-piperazinyl)-6-quinolinyl)-2-chloro-3-pyridinyl)methanesulfonamide], on PI3Kα, the affinity, expressed as Ki, was 0.0225 µM. Besides, the figures for the IC50 (on mTOR; in assay [1]) were 0.0487 µM and 0.289 µM, respectively.
As for `O=S(=O)(Nc1cc(-c2ccc3nccc(-c4cccnc4)c3c2)cnc1Cl)c1ccc(F)cc1` [Example 93, N-(2-chloro-5-(4-(3-pyridinyl)-6-quinolinyl)-3-pyridinyl)-4-fluorobenzenesulfonamide], the IC50 came out at 0.0016 µM against mTOR and 0.0119 µM in assay [1].
As to `O=S(=O)(Nc1cc(-c2ccc3nccc(-c4ccnc(Cl)c4)c3c2)cnc1Cl)c1ccc(F)cc1` [Example 94, N-(2-chloro-5-(4-(2-chloro-4-pyridinyl)-6-quinolinyl)-3-pyridinyl)-4-fluorobenzenesulfonamide], the Ki on PI3Kα was 0.0013 µM. The IC50 came to 0.0006 µM against mTOR and 0.0053 µM in assay [1].
The corresponding values for `CS(=O)(=O)Nc1cc(-c2ccc3nccc(-c4cccnc4)c3c2)cnc1-c1cccnc1` [Example 117, N-(5-(4-(Pyridin-3-yl)quinolin-6-yl)-2,3′-bipyridin-3-yl)methanesulfonamide] are 0.0053 µM, 0.0015 µM and 0.255 µM.
As for `O=S(=O)(Nc1cc(-c2ccc3ncc(-c4ccncc4)nc3c2)cnc1Cl)c1ccc(F)cc1` [Example 121, N-(2-Chloro-5-(3-(pyridin-4-yl)quinoxalin-6-yl)pyridin-3-yl)-4-fluorobenzenesulfonamide], the values for the IC50 (on mTOR; in assay [1]) were 0.0057 µM and 0.031 µM, respectively.
Regarding `C[C@@H]1CN(c2ccnc3ccc(-c4cnc(Cl)c(NS(=O)(=O)c5ccc(F)cc5)c4)cc23)C[C@H](C)O1` [Example 96, N-(2-chloro-5-(4-((2R,6S)-2,6-dimethyl-4-morpholinyl)-6-quinolinyl)-3-pyridinyl)-4-fluorobenzenesulfonamide], the Ki on PI3Kα stood at 0.0068 µM. Also, the figures for the IC50 (against mTOR; in assay [1]) were 0.011 µM and 0.0375 µM, respectively.
For the compound `O=S1(=O)CCC(Oc2ccnc3ccc(-c4cnc(Cl)c(NS(=O)(=O)c5ccc(F)cc5)c4)cc23)C1` (centres unmarked) [Example 115, N-(2-Chloro-5-(4-(tetrahydrothiophen-1,1-dioxide-3-yloxy)quinolin-6-yl)pyridin-3-yl)-4-fluorobenzenesulfonamide], the IC50 was determined as 0.0126 µM against mTOR and 0.194 µM in assay [1].
As for `O=S(=O)(Nc1cc(-c2ccc3nccc(N4CCN(Cc5ccncc5)CC4)c3c2)cnc1Cl)c1ccc(F)cc1` [Example 89, N-(2-chloro-5-(4-(4-(4-pyridinylmethyl)-1-piperazinyl)-6-quinolinyl)-3-pyridinyl)-4-fluorobenzenesulfonamide], the IC50 came to 0.0039 µM at mTOR and 0.0223 µM in assay [1].
In the same order, the values of `O=S(=O)(Nc1cc(-c2ccc3ncc(NCCN4CCOCC4)nc3c2)cnc1Cl)c1ccc(F)cc1` [Example 91, N-(2-chloro-5-(3-((2-(4-morpholinyl)ethyl)amino)-6-quinoxalinyl)-3-pyridinyl)-4-fluorobenzenesulfonamide] are 0.0053 µM and 0.075 µM.
In the same order, the values of `CS(=O)(=O)Nc1cc(-c2ccc3nccc(C4CCOCC4)c3c2)cnc1Cl` [Example 114, N-(2-Chloro-5-(4-(tetrahydro-2H-pyran-4-yl)quinolin-6-yl)pyridin-3-yl)methanesulfonamide] are 0.0063 µM and 0.0254 µM.
On PI3Kα, `O=c1c2cccnc2ccn1-c1cnc(Cl)c(NS(=O)(=O)c2ccc(F)cc2)c1` [Example 137, N-(2-chloro-5-(5-oxo-1,6-naphthyridin-6(5H)-yl)-3-pyridinyl)-4-fluorobenzenesulfonamide] showed a Ki of 0.548 µM. In assay [1], this compound displayed an IC50 of 2.98 µM.
